In patent publication US8314130B2, “Compounds inclunding substituted pyridines for inflammation and immune-related uses” (Synta Pharmaceuticals Corp., priority 2008, dated 2012):

Columns and labels:
IL-2 = assay: Inhibition of IL-2 production in PHA-activated Jurkat cells (1% FBS), ELISA; format: cell-based; conditions: Homo sapiens, activity class, read-out: IL-2 current inhibition Jurkat/PHA/1% FBS IC50
Description: Jurkat cells were placed in a 96 well plate (0.5 million cells per well in 1% FBS medium), and then a test compound of this invention was added at different concentrations. After 10 minutes, the cells were activated with PHA (final concentration 2.5 μg/mL) and incubated for 20 hours at 37° C. under 5% CO2. The final volume was 200 Following incubation, the cells were centrifuged, and the supernatants collected and stored at −70° C. prior to assaying for IL-2 production. A commercial ELISA kit (IL-2 Eli-pair, Diaclone Research, Besancon, France) was used to detect production of IL-2, from which dose response curves were obtained. The IC50 value was calculated as the concentration at which 50% of maximum IL-2 production after stimulation was inhibited versus a non-stimulation control.

CRACM1/STIM1 = target: T1, CRACM1/STIM1 (Homo sapiens, UniProt Q96D31); assay: ICRAC current inhibition in CRACM1/STIM1-CHOK1 cells (patch clamp); format: cell-based; conditions: activity class; for inhibition at 0.5 µM: 500 nM
T1 construct: Full length human Stim1, CracM1, CracM2 and CracM3 cDNA
T1 sequence (Q96D31 whole entry): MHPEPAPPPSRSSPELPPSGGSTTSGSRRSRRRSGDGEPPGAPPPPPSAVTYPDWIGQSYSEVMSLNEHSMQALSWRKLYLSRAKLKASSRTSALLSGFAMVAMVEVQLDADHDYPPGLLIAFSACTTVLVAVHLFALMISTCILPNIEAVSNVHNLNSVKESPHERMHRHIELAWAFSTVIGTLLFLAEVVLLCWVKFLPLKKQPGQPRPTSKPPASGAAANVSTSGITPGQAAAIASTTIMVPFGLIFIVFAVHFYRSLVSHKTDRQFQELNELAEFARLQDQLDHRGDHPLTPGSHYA
Description: Manual patch clamp experiments are conducted in the tight-seal whole-cell configuration at room temperature (21-25° C.). Patch pipettes are fashioned from borosilicate glass capillary tubes and have resistances between 2-4 MO after filling with standard intracellular solution. High resolution current recordings are acquired with a computer-based patch clamp amplifier system (EPC-10, HEKA, Lambrecht, Germany). All voltages are corrected for a liquid junction potential of 10 mV between external and internal solutions with glutamate as the intracellular anion. Currents are filtered at 2.9 kHz and digitized at 10 μs intervals. Capacitive currents and series resistance are determined and corrected before each voltage ramp using the automatic capacitance compensation of the EPC-10.
Automated patch clamp experiments are conducted with the QPatch 16 (Sophion Bioscience, Ballerup, Denmark) at room temperature (21-25° C.). Immediately following the establishment of giga-seal whole-cell configuration, the cells membrane potential is clamped at 0 mV. Voltage ramps of 50 ms duration spanning the voltage range of −100 to +100 mV are then stimulated at a rate of 0.33 Hz. Currents are filtered at 2.9 kHz and digitized at 200 μs intervals. Capacitive currents and series resistance are determined and corrected before each voltage ramp using the automatic capacitance compensation.
In general, a whole cell patch clamp method is used to examine the effects of a compound of the invention on a channel(s) that mediates ICRAC. In such experiments, a baseline ICRAC measurement is established within the first 70 voltage ramps, or 140 seconds, for a patched cell. Then the cells are perfused with the compound to be tested and the effect of the compound on ICRAC is measured for at least an additional 440 to 500 seconds. A compound that modulates ICRAC (e.g., inhibits) is a compound that is useful in the invention for modulating CRAC ion channel activity.
ICRAC currents are measured using 50 msec voltage ramps between −100 mV to +100 mV. The voltage ramps are stimulated every 2 seconds for the first 70 sweeps, then every 5 seconds for the remainder of the experiment. The membrane potential is held at 0 mV between the test ramps. In a typical experiment, the peak inward currents will develop within 50-100 seconds. Once the ICRAC current is stabilized, the cells are perfused with a test compound in the extracellular solution for at least an additional 500 seconds.
Off-line analysis with the Heka PatchMaster software is used to separate the ICRAC membrane current from the cells basal background currents. In a typical recording, InsP3 stimulated ICRAC currents begin to develop in 6 to 12 seconds after whole cell is established. Therefore, the first 1-4 voltage ramps represent the basal membrane currents in the absence of ICRAC and the average value is subtracted from all subsequent traces. The current value at −80 mV for each ramp trace is then measured and plotted against time. The resulting current versus time data is exported into a Microsoft Excel spreadsheet. The % ICRAC inhibition in each cell is calculated by comparing the amount of current just prior to the compound perfusion to the amount of current after the cells has been perfused with the compound for 440-500 seconds. The IC50 value and Hill coefficient for each compound is estimated by fitting all the individual data points to a single-site Hill equation.
TREx™-CHO cells were transfected with human Stim1 (recombinant DNA in pcDNA4/TO/myc-His™ A with a myc epitope tag in the N-terminal) and either CracM1, CracM2 or CracM3 (recombinant DNA in pcDNA 3.1 with a HA epitope tag in the N-terminal). Stably expressing cells were selected by growing the transfected cells in antibiotics for two to three weeks. Individual cell clones were isolated via serial dilution. […]

Compound	IC50 (IL-2) [nM]	inhibition at 0.5 µM (CRACM1/STIM1) [%]	ICRAC current inhibition CRACM1/STIM1-CHOK1 % Inhibition at 500 nM (CRACM1/STIM1)
CC(C)c1sc(-c2cccnc2)cc1-c1ccc(NC(=O)c2c(F)cccc2F)nc1 [Compound 11, 2,6-difluoro-N-(5-(2-isopropyl-5-(pyridin-3-yl)thiophen-3-yl)pyridin-2-yl)-benzamide]	< 50	< 50	–
C=C(C)c1sc(-c2cccnc2)cc1-c1ccc(NC(=O)c2c(F)cccc2F)cc1 [Compound 14, 2,6-difluoro-N-(4-(2-(prop-1-en-2-yl)-5-(pyridin-3-yl)thiophen-3-yl)phenyl)benzamide]	< 50	< 50	–
CC(C)c1sc(-c2cccnc2)cc1-c1ccc(NC(=O)c2c(F)cccc2F)cc1 [Compound 15, 2,6-difluoro-N-(4-(2-isopropyl-5-(pyridin-3-yl)thiophen-3-yl)phenyl)benzamide]	< 50	50 to 70	–
Cc1sc(-c2cccnc2)nc1-c1ccc(NC(=O)c2c(F)cccc2F)cc1 [F]	< 50	50 to 70	–
Cc1sc(-c2cnn(C)c2)nc1-c1ccc(NC(=O)c2c(F)cccc2F)cc1 [H]	< 50	70 to 100	–
Cc1sc(C(=O)c2cccnc2)cc1-c1ccc(NC(=O)c2c(F)cccc2F)cc1 [O]	< 50	–	High
